# In patent publication US11034718B2, “C-3 novel triterpenone with C-17 reverse amide derivatives as HIV inhibitors” (HETERO LABS LIMITED, priority 2015, dated 2021):
# Where a name gives a salt, the structure may show the parent alone. Read-outs that look alike come from different tables or passages of the source.
# Tested on: HIV-1 strain 92HT599
# Assay: Antiviral activity against HIV-1 strain 92HT599 in MT2 cells (p24 estimation)
# Format: cell-based
# Conditions: HIV-1 92HT599, ~96 hours
# Protocol: Example 77: Evaluation of Compounds Antiviral Activity Against HIV-1 Strain 92HT599 in MT2 Cells
# MT2 cells were infected with HIV-1 strain 92HT599 (10 TCID 50/30000 cells). The infected cells were plated at the concentration of 30,000 cells per well in 96 well plate. Test compound was added to the micro plate in defined format with the final concentration of DMSO (vehicle) is not more than 1%. Incubation was carried out in CO2 incubator for ˜96 hours for viral infection. At the end of incubation period an aliquot from each well was taken for p24 estimation. The quantitation of p24 is an index for antiviral activity of the compound. Percent inhibition was calculated with reference to control values (vehicle controls). p24 estimation was carried out using Advance biosciences kit as per the procedure detailed by supplier.
# [1] = Human immunodeficiency virus 1, 0% serum binding assay, read-out: IC50 0% serum
# [2] = Human immunodeficiency virus 1, 40% serum binding assay, read-out: IC50 40% serum
SMILES,IC50 [1],IC50 [2]
"CCN1CCN(CC(=O)NC(C)(C)C(=O)N[C@@]23CC[C@]4(C)[C@H](CC[C@@H]5[C@@]6(C)CC[C@H](OC(=O)[C@H]7C[C@@H](C(=O)O)C7(C)C)C(C)(C)[C@@H]6CC[C@]54C)C2=C(C(C)C)C(=O)C3)CC1 [Example 9, (1R,3S)-3-((((3aR,5aR,5bR,7aR,9S,11aR,11bR,13aS)-3a-(2-(2-(4-ethylpiperazin-1-yl)acetamido)-2-methylpropanamido)-1-isopropyl-5a,5b,8,8,11a-pentamethyl-2-oxo-3,3a,4,5,5a,5b,6,7,7a,8,9,10,11,11a,11b,12,13,13a-octadecahydro-2H-cyclopenta[a]chrysen-9-yl)oxy)carbonyl)-2,2-dimethylcyclobutane-1-carboxylic acid]",< 0.003 µM,> 0.2 µM
"CC(C)C1=C2[C@H]3CC[C@@H]4[C@@]5(C)CC[C@H](OC(=O)[C@H]6C[C@@H](C(=O)O)C6(C)C)C(C)(C)[C@@H]5CC[C@@]4(C)[C@]3(C)CC[C@@]2(NC(=O)C(C)(C)NC(=O)CN2CCCCC2)CC1=O [Example 10, (1R,3S)-3-((((3aR,5aR,5bR,7aR,9S,11aR,11bR,13aS)-1-isopropyl-5a,5b,8,8,11a-pentamethyl-3a-(2-methyl-2-(2-(piperidin-1-yl)acetamido)propan amido)-2-oxo-3,3a,4,5,5a,5b,6,7,7a,8,9,10,11,11a,11b,12,13,13a-octadecahydro-2H-cyclopenta[a]chrysen-9-yl)oxy)carbonyl)-2,2-dimethylcyclobutane-1-carboxylic acid]",< 0.003 µM,< 0.05 µM
"CC(C)C1=C2[C@H]3CC[C@@H]4[C@@]5(C)CC[C@H](OC(=O)[C@H]6C[C@@H](C(=O)O)C6(C)C)C(C)(C)[C@@H]5CC[C@@]4(C)[C@]3(C)CC[C@@]2(NC(=O)C(C)(C)NC(=O)C(C)(C)N)CC1=O [Example 11, (1R,3S)-3-((((3aR,5aR,5bR,7aR,9S,11aR,11bR,13aS)-3a-(2-(2-amino-2-methylpropanamido)-2-methylpropanamido)-1-isopropyl-5a,5b,8,8,11a-pentamethyl-2-oxo-3,3a,4,5,5a,5b,6,7,7a,8,9,10,11,11a,11b,12,13,13a-octadecahydro-2H-cyclopenta[a]chrysen-9-yl)oxy)carbonyl)-2,2-dimethylcyclobutane-1-carboxylic acid hydrochloride]",< 0.003 µM,0.05 to 0.2 µM
"CC(C)C1=C2[C@H]3CC[C@@H]4[C@@]5(C)CC[C@H](OC(=O)[C@H]6C[C@@H](C(=O)O)C6(C)C)C(C)(C)[C@@H]5CC[C@@]4(C)[C@]3(C)CC[C@@]2(NC(=O)C(C)(C)NC(=O)c2ccc3[nH]cnc3c2)CC1=O [Example 12, (1R,3S)-3-((((3aR,5aR,5bR,7aR,9S,11aR,11bR,13aS)-3a-(2-(1H-benzo[d]imidazole-5-carboxamido)-2-methylpropanamido)-1-isopropyl-5a,5b,8,8,11a-pentamethyl-2-oxo-3,3a,4,5,5a,5b,6,7,7a,8,9,10,11,11a,11b,12,13,13a-octadecahydro-2H-cyclopenta[a]chrysen-9-yl)oxy)carbonyl)-2,2-dimethylcyclobutane-1-carboxylic acid]",< 0.003 µM,0.05 to 0.2 µM
"Cc1ccc(-c2nc3cc(C(=O)NC(C)(C)C(=O)N[C@@]45CC[C@]6(C)[C@H](CC[C@@H]7[C@@]8(C)CC[C@H](OC(=O)[C@H]9C[C@@H](C(=O)O)C9(C)C)C(C)(C)[C@@H]8CC[C@]76C)C4=C(C(C)C)C(=O)C5)ccc3[nH]2)cn1 [Example 13, (1R,3S)-3-((((3aR,5aR,5bR,7aR,9S,11aR,11bR,13aS)-1-isopropyl-5a,5b,8,8,11a-pentamethyl-3a-(2-methyl-2-(2-(6-methylpyridin-3-yl)-1H-benzo[d]imidazole-5-carboxamido)propanamido)-2-oxo-3,3a,4,5,5a,5b,6,7,7a,8,9,10,11,11a,11b,12,13,13a-octadecahydro-2H-cyclopenta[a]chrysen-9-yl)oxy)carbonyl)-2,2-dimethylcyclobutane-1-carboxylic acid]",< 0.003 µM,< 0.05 µM
"CC(C)C1=C2[C@H]3CC[C@@H]4[C@@]5(C)CC[C@H](OC(=O)[C@@H]6C[C@H](C(=O)O)C6(C)C)C(C)(C)[C@@H]5CC[C@@]4(C)[C@]3(C)CC[C@@]2(NC(=O)C(C)(C)NC(=O)c2ccc(Cl)cc2)CC1=O [Example 21, (1S,3R)-3-((((3aR,5aR,5bR,7aR,9S,11aR,11bR,13aS)-3a-(2-(4-chlorobenzamido)-2-methylpropanamido)-1-isopropyl-5a,5b,8,8,11a-pentamethyl-2-oxo-3,3a,4,5,5a,5b,6,7,7a,8,9,10,11,11a,11b,12,13,13a-octadecahydro-2H-cyclopenta[a]chrysen-9-yl)oxy)carbonyl)-2,2-dimethylcyclobutane-1-carboxylic acid]",0.00301 to 0.01 µM,< 0.05 µM
"CC(C)C1=C2[C@H]3CC[C@@H]4[C@@]5(C)CC[C@H](OC(=O)[C@H]6C[C@@H](C(=O)O)C6(C)C)C(C)(C)[C@@H]5CC[C@@]4(C)[C@]3(C)CC[C@@]2(NC(=O)C(C)(C)NC(=O)c2ccc(F)cc2)CC1=O [Example 22, (1R,3S)-3-((((3aR,5aR,5bR,7aR,9S,11aR,11bR,13aS)-3a-(2-(4-fluorobenzamido)-2-methylpropanamido)-1-isopropyl-5a,5b,8,8,11a-pentamethyl-2-oxo-3,3a, 4,5,5a,5b,6,7,7a,8,9,10,11,11a,11b,12,13,13a-octadecahydro-2H-cyclopenta[a]chrysen-9-yl)oxy)carbonyl)-2,2-dimethylcyclobutane-1-carboxylic acid]",< 0.003 µM,< 0.05 µM
"Cc1ccc(C(=O)NC(C)(C)C(=O)N[C@@]23CC[C@]4(C)[C@H](CC[C@@H]5[C@@]6(C)CC[C@H](OC(=O)[C@H]7C[C@@H](C(=O)O)C7(C)C)C(C)(C)[C@@H]6CC[C@]54C)C2=C(C(C)C)C(=O)C3)cc1 [Example 23, (1R,3S)-3-((((3aR,5aR,5bR,7aR,9S,11aR,11bR,13aS)-1-isopropyl-5a,5b,8,8,11a-pentamethyl-3a-(2-methyl-2-(4-methylbenzamido)propanamido)-2-oxo-3,3a,4,5,5a,5b,6,7,7a,8,9,10,11,11a,11b,12,13,13a-octadecahydro-2H-cyclopenta[a]chrysen-9-yl)oxy)carbonyl)-2,2-dimethylcyclobutane-1-carboxylic acid]",< 0.003 µM,< 0.05 µM
"CC(C)C1=C2[C@H]3CC[C@@H]4[C@@]5(C)CC[C@H](OC(=O)[C@H]6C[C@@H](C(=O)O)C6(C)C)C(C)(C)[C@@H]5CC[C@@]4(C)[C@]3(C)CC[C@@]2(NC(=O)C(C)(C)NC(=O)c2ccoc2)CC1=O [Example 24, (1R,3S)-3-((((3aR,5aR,5bR,7aR,9S,11aR,11bR,13aS)-3a-(2-(furan-3-carboxamido)-2-methylpropanamido)-1-isopropyl-5a,5b, 8,8,11a-pentamethyl-2-oxo-3,3a,4,5,5a,5b,6,7,7a,8,9,10,11,11a,11b,12,13,13a-octadecahydro-2H-cyclopenta[a]chrysen-9-yl)oxy)carbonyl)-2,2-dimethylcyclobutane-1-carboxylic acid]",< 0.003 µM,0.05 to 0.2 µM
"CC(C)C1=C2[C@H]3CC[C@@H]4[C@@]5(C)CC[C@H](OC(=O)[C@H]6C[C@@H](C(=O)O)C6(C)C)C(C)(C)[C@@H]5CC[C@@]4(C)[C@]3(C)CC[C@@]2(NC(=O)C(C)(C)NC(=O)c2ccco2)CC1=O [Example 26, (1R,3S)-3-((((3aR,5aR,5bR,7aR,9S,11aR,11bR,13aS)-3a-(2-(furan-2-carboxamido)-2-methylpropanamido)-1-isopropyl-5a,5b,8,8,11a-pentamethyl-2-oxo-3,3a,4,5,5a,5b,6,7,7a,8,9,10,11,11a,11b,12,13,13a-octadecahydro-2H-cyclopenta[a]chrysen-9-yl)oxy)carbonyl)-2,2-dimethylcyclobutane-1-carboxylic acid]",< 0.003 µM,0.05 to 0.2 µM
"CC(C)C1=C2[C@H]3CC[C@@H]4[C@@]5(C)CC[C@H](OC(=O)[C@H]6C[C@@H](C(=O)O)C6(C)C)C(C)(C)[C@@H]5CC[C@@]4(C)[C@]3(C)CC[C@@]2(NC(=O)C(C)(C)NC(=O)C2(c3ccccc3)CCCC2)CC1=O [Example 27, (1R,3S)-3-((((3aR,5aR,5bR,7aR,9S,11aR,11bR,13aS)-1-isopropyl-5a,5b,8,8,11a-pentamethyl-3a-(2-methyl-2-(1-phenylcyclopentane-1-carboxamido)propanamido)-2-oxo-3,3a,4,5,5a,5b,6,7,7a,8,9,10,11,11a,11b,12,13,13a-octadecahydro-2H-cyclopenta[a]chrysen-9-yl)oxy)carbonyl)-2,2-dimethylcyclobutane-1-carboxylic acid]",0.00301 to 0.01 µM,0.05 to 0.2 µM
"CC(C)C1=C2[C@H]3CC[C@@H]4[C@@]5(C)CC[C@H](OC(=O)[C@H]6C[C@@H](C(=O)O)C6(C)C)C(C)(C)[C@@H]5CC[C@@]4(C)[C@]3(C)CC[C@@]2(NC(=O)C(C)(C)NC(=O)C2CCNCC2)CC1=O [Example 35, (1R,3S)-3-((((3aR,5aR,5bR,7aR,9S,11aR,11bR,13aS)-1-isopropyl-5a,5b,8,8,11a-pentamethyl-3a-(2-methyl-2-(piperidine-4-carboxamido)propanamido)-2-oxo-3,3a,4,5,5a,5b,6,7,7a,8,9,10,11,11a,11b,12,13,13a-octadecahydro-2H-cyclopenta[a]chrysen-9-yl)oxy)carbonyl)-2,2-dimethylcyclobutane-1-carboxylic acid hydrochloride]",> 0.01 µM,> 0.2 µM
